{"source": "paper PMC10571957", "about": "“αV-Integrin-Dependent Inhibition of Glioblastoma Cell Migration, Invasion and Vasculogenic Mimicry by the uPAcyclin Decapeptide” (Cancers, 2023)", "assay_type_in_all_cases": "cell-based, human", "key": {"[1]": {"tested_on": "U87-MG cells", "assay": "Boyden chamber Matrigel invasion, U87-MG", "conditions": "for invasion, % basal, average expt 1: mean of expt 1", "procedure": "The migration and invasion assays were performed using Boyden chambers and 8 µm pore size PVP-free filters coated with 50 µg/mL of collagen type VI (Sigma), as previously described. For the invasion assays, collagen-coated filters were further coated with 50 µg/mL Matrigel^TM (Sigma). Briefly, 11 × 10^4 U87-MG, 4 × 10^4 U251-MG, or 4 × 10^4 U138-MG/sample were pre-treated for 40 min at 37 °C with the indicated effectors. Then, the cells were allowed to migrate for 3 h or to invade for 5 h at 37 °C toward 5% FBS in DMEM/0.1% BSA. At the end of both assays, the cells on the lower filter surface were fixed, stained with haematoxylin, and counted under an optical microscope (Zeiss Axiophot, Carl Zeiss, Milan, Italy) at 20× magnification. […] The migrated or invaded cells were reported as percentage of basal migration or invasion in the presence of DMEM/0.1% BSA, taken as 100%, and analyzed as reported in Section 2.11.\nFigure 4 Effect of uPAcyclin on matrix invasion of U87-MG, U251-MG, and U138-MG GBM cells. Quantitative analysis of U87-MG (A), U251-MG (B), and U138-MG (C) invasion. […] Data are expressed as in the legend to Figure 3. Results are expressed as percentages with respect to the basal invasion, considered as 100% (* p-value < 0.05; ** p-value < 0.005; *** p-value < 0.001)."}, "[2]": {"tested_on": "U251-MG cells", "assay": "Vasculogenic mimicry (tube formation on Geltrex), U251-MG", "conditions": "24 h", "procedure": "The tube formation assay was performed in 96-well plates pre-coated with 50 µL/well of Geltrex^TM (Thermofisher, Scientific, Waltham, MA, USA), and polymerized for 30 min at 37 °C. Briefly, 3 × 10^4 U87-MG, 1.5 × 10^4 U251, and 1 × 10^4 C6 cells/100µL/well were plated onto Geltrex^TM and monitored at 37 °C for the indicated times. The specific effectors were included at time 0. The formation of vascular-like structures by Geltrex^TM-plated U87-MG and U251-MG cells was monitored for 24 h, whereas C6 cells were tested for 16 h. The evaluation of the branching point number, defined as the intersection of at least 3 tubes [24], was performed using the Inverted Microscope DMI Leica 6000 for the U87-MG and U251-MG cells and the Inverted Microscope Axiovert 25 for the C6 cells. At the indicated times, the number of “branching points” was assessed in 4/5 random fields using the ImageJ 1.52a Software.\nFigure 8 Vascular mimicry formation and VE-cadherin expression inhibited by uPAcyclin in U251-MG cells. […] (B) The quantitation of the branching point number is described in the legend to Figure 6B. […] The densitometric quantitation of VE-cadherin bands is shown (right panel) (* p-value < 0.05; *** p-value < 0.001)."}, "[3]": {"tested_on": "U251-MG cells", "assay": "Cell viability/proliferation (Trypan blue), U251-MG", "conditions": "1 nM or 100 nM, 72–96 h", "procedure": "Cell viability was tested in DMEM/10% FBS, in the presence of 1 nM or 100 nM uPAcyclin, either by Trypan blue exclusion or by thiazolyl blue tetrazolium bromide (MTT) assays, as specified in the figure legends. For the Trypan blue assay, 4 × 10^4 U87-MG, U251-MG, U138-MG, and C6 cells/sample were grown in 12-well plates, and followed for 24, 48 and 72 h. As a negative control, the cells were grown in a serum-free medium. Then, the cells were detached, stained with a 0.2% (w/v) Trypan blue solution, counted using a Burker chamber (T0 = 100%), and reported as number of viable cells/total."}, "[4]": {"conditions": "100 nM, 5% FBS, 5 h, expt 1, duplicates"}, "[5]": {"conditions": "100 nM, 5% FBS, 5 h, expt 2, duplicates"}, "[6]": {"conditions": "100 nM, 5% FBS, 5 h, expt 3, duplicates"}, "[7]": {"conditions": "1 µM, 5% FBS, 5 h, expt 1, duplicates"}}, "note": "“And” between values parts separate entries of the source, which are not always exact repeats. Equal values may be shown once.", "data": [{"substance": "Ac-K^1P[ESPPEELK^10]-NH2 (sidechain bridge or staple) [uPAcyclin]", "values": [{"measurement": "reduction in invasion", "setting": "[1]; 100 nM, U87-MG, 5% FBS, 5 h", "value": "50–60%"}, {"measurement": "invaded cell number/field", "setting": "[1]; [4]", "value": "29 cell number/field and 28 cell number/field"}, {"measurement": "invasion, % of basal", "setting": "[1]; [4]", "value": "111% and 108%"}, {"measurement": "invaded cell number/field", "setting": "[1]; [5]", "value": "28 cell number/field and 29 cell number/field"}, {"measurement": "invasion, % of basal", "setting": "[1]; [5]", "value": "117% and 121%"}, {"measurement": "invaded cell number/field", "setting": "[1]; [6]", "value": "34 cell number/field and 33 cell number/field"}, {"measurement": "invasion, % of basal", "setting": "[1]; [6]", "value": "131% and 127%"}, {"measurement": "Invasion, %, average 3 expts", "setting": "[1]; 100 nM, mean of 3 expts", "value": 119, "unit": "%"}, {"measurement": "invasion, % basal, average expt 1", "setting": "[1]; 100 nM", "value": 110, "unit": "%"}, {"measurement": "invasion, % basal, average expt 2", "setting": "[1]; 100 nM, mean of expt 2", "value": 119, "unit": "%"}, {"measurement": "invasion, % basal, average expt 3", "setting": "[1]; 100 nM, mean of expt 3", "value": 129, "unit": "%"}, {"measurement": "invasion, % of basal, T-test list", "setting": "[1]; 100 nM, single replicates of 3 expts", "value": "111 and 108 and 117 and 121 and 131 and 127"}, {"measurement": "invasion, in words", "setting": "[1]; 1 µM, U87-MG, 5% FBS, 5 h", "value": "reduced invasion to basal levels"}, {"measurement": "invaded cell number/field", "setting": "[1]; [7]", "value": "24 cell number/field and 26 cell number/field"}, {"measurement": "invasion, % of basal", "setting": "[1]; [7]", "value": "92% and 100%"}, {"measurement": "Invasion, %, average 3 expts", "setting": "[1]; 1 µM, headed average 3 expts (only expt 1 has data)", "value": 96, "unit": "%"}, {"measurement": "invasion, % basal, average expt 1", "setting": "[1]; 1 µM", "value": 96, "unit": "%"}, {"measurement": "invasion, % of basal, T-test list", "setting": "[1]; printed 10 µM, single replicates", "value": "92 and 100"}, {"measurement": "branching number per field decreased to", "setting": "[2]; 1 nM", "value": 20, "unit": "%"}, {"measurement": "branching number per field decreased to", "setting": "[2]; 100 nM", "value": 15, "unit": "%"}, {"measurement": "proliferation/viability", "setting": "[3]", "value": "unaffected by uPAcyclin, regardless of the concentration employed"}]}]}
